Data published in ChEMBL document CHEMBL5500346, “Targeting EGFR degradation by autophagosome degraders” (Eur J Med Chem, 2024).
Activity calls are given as the source filed them. The calls are words filed in the database; no cut-off is given here.

Key:
[1] = Toxicity in C57BL/6 mouse assessed as dyspnea upto 200 mg/kg, ip measured after 24 hrs; format: organism-based; conditions: in vivo
[2] = Toxicity in C57BL/6 mouse assessed as serum ALP level at 200 mg/kg, ip measured after 24 hrs (reference value: 250.654 U/L); format: organism-based; conditions: in vivo
[3] = target: T1, Microtubule-associated protein 1 light chain 3 beta/Epidermal growth factor receptor (Homo sapiens, UniProt P00533+Q9GZQ8); assay: Binding affinity to biotinylated LC3B/EGFR in human HCC827 cells assessed as dissociation constant BLI assay; format: cell-based
[4] = target: T1, Microtubule-associated protein 1 light chain 3 beta/Epidermal growth factor receptor; assay: ATTEC activity at LC3B/EGFR in human HCC827 cells assessed as protein degradation at 1 uM measured after 12 hrs by Western blot analysis relative to control; format: cell-based
[5] = Toxicity in C57BL/6 mouse assessed as serum ALB level at 100 mg/kg, ip measured after 24 hrs (reference value: 40.01 g/L); format: organism-based; conditions: in vivo
[6] = Toxicity in C57BL/6 mouse assessed as lethargy upto 200 mg/kg, ip measured after 24 hrs; format: organism-based; conditions: in vivo
PC-9 [7] = assay: In vivo ATTEC activity at LC3B/EGFR in human PC-9 cells implanted in NOD-SCID mouse assessed as protein degradation at 10 mg/kg, ip administered every other day for 3 weeks by Western blot analysis; format: functional, organism-based
[8] = Toxicity in C57BL/6 mouse assessed as change in hematological indicators upto 200 mg/kg, ip measured after 24 hrs by blood cell analysis; format: organism-based; conditions: in vivo
[9] = Toxicity in C57BL/6 mouse assessed as serum ALB level at 200 mg/kg, ip measured after 24 hrs (reference value: 40.01 g/L); format: organism-based; conditions: in vivo
[10] = Toxicity in C57BL/6 mouse assessed as histological change in liver upto 200 mg/kg, ip measured after 24 hrs by H and E staining based analysis; format: organism-based; conditions: in vivo
[11] = Toxicity in C57BL/6 mouse assessed as serum DBIL level at 200 mg/kg, ip measured after 24 hrs (reference value: 7.868 umol/L); format: organism-based; conditions: in vivo
PC-9 [12] = assay: Anti-tumor activity against human PC-9 cells implanted in NOD-SCID mouse at 5 mg/kg, ip administered every other day for 3 weeks relative to control; format: functional; conditions: PC-9, 504 h, read-out: TGI
[13] = Toxicity in C57BL/6 mouse assessed as serum creatinine level at 200 mg/kg, ip measured after 24 hrs (reference value: 32.258 umol/L); format: organism-based; conditions: in vivo
NCI-H3255 = assay: Inhibition of colony formation in human NCI-H3255 cells incubated for 2 weeks by crystal violet staining based analysis; format: functional, cell-based; conditions: dose 0.1-10 µM
[14] = target: T1, Microtubule-associated protein 1 light chain 3 beta/Epidermal growth factor receptor; assay: ATTEC activity at LC3B/EGFR in human HCC827 cells assessed as protein degradation by immunoblot analysis; format: cell-based
[15] = Toxicity in C57BL/6 mouse assessed as serum ALT level at 200 mg/kg, ip measured after 24 hrs (reference value: 42.554 U/L); format: organism-based; conditions: in vivo
[16] = Toxicity in C57BL/6 mouse assessed as histological change in kidney upto 200 mg/kg, ip measured after 24 hrs by H and E staining based analysis; format: organism-based; conditions: in vivo
[17] = target: T1, Microtubule-associated protein 1 light chain 3 beta/Epidermal growth factor receptor; assay: ATTEC activity at LC3B/EGFR in rapamycin-treated human HCC827 cells assessed as protein degradation by Western blot analysis; format: cell-based
PC-9 [18] = assay: Anti-tumor activity against human PC-9 cells implanted in NOD-SCID mouse at 20 mg/kg, ip administered every other day for 3 weeks relative to control; format: functional; conditions: PC-9, 504 h, read-out: TGI
[19] = Toxicity in C57BL/6 mouse assessed as serum uric acid level at 200 mg/kg, ip measured after 24 hrs (reference value: 78.784 umol/L); format: organism-based; conditions: in vivo
[20] = target: T1, Microtubule-associated protein 1 light chain 3 beta/Epidermal growth factor receptor; assay: ATTEC activity at LC3B/EGFR in human A549 cells assessed as protein degradation; format: cell-based
[21] = Toxicity in C57BL/6 mouse assessed as serum AST level at 200 mg/kg, ip measured after 24 hrs (reference value: 234.682 U/L); format: organism-based; conditions: in vivo
[22] = Toxicity in C57BL/6 mouse assessed as serum GGT level at 200 mg/kg, ip measured after 24 hrs (reference value: 1.62 U/L); format: organism-based; conditions: in vivo
[23] = target: T1, Microtubule-associated protein 1 light chain 3 beta/Epidermal growth factor receptor; assay: ATTEC activity at LC3B/EGFR in human HCC827 cells assessed as protein degradation; format: cell-based
[24] = Half life in Sprague-Dawley rat at 20 mg/kg, ip; format: ADME, organism-based; conditions: in vivo
PC-9 [25] = assay: In vivo ATTEC activity at LC3B/EGFR in human PC-9 cells implanted in NOD-SCID mouse assessed as protein degradation at 20 mg/kg, ip measured after 24 hrs by Western blot analysis; format: functional, organism-based
[26] = Toxicity in C57BL/6 mouse assessed as serum creatinine level at 100 mg/kg, ip measured after 24 hrs (reference value: 32.258 umol/L); format: organism-based; conditions: in vivo

COc1cc2ncnc(Nc3ccc(F)c(Cl)c3)c2cc1OCCOCCOCCOCCNC(=O)COc1c(Br)cc(/C=C2\C(=O)Nc3ccc(I)cc32)cc1Br
Activity [1]: Non-Toxic
Activity [2]: 177.394 U/L
Kd [3]: 710 nM
Activity [4]: 68%
Activity [5]: 35.48 g/L
Activity [6]: Non-Toxic
Activity (PC-9 [7]): Active
Activity [8]: Non-Toxic
Activity [9]: 40.048 g/L
Activity [10]: Non-Toxic
Activity [11]: 6.434 µmol/L
inhibition in vivo at 5 mg/kg (PC-9 [12]): 35%
Activity [13]: 30.848 µmol/L
inhibition (NCI-H3255): Dose-Dependent Effect
DC50 [14]: 980 nM
Activity [15]: 43.302 U/L
Activity [16]: Non-Toxic
Activity [17]: Active
inhibition in vivo at 20 mg/kg (PC-9 [18]): 63.4%
Activity [19]: 49.734 µmol/L
Activity [20]: inactive
Activity [21]: 159.506 U/L
Activity [22]: 1.712 U/L
Activity [23]: Active
half-life [24]: 10.5 h
Activity (PC-9 [25]): Active
Activity [26]: 27.8 µmol/L
